The values that follow come from ChEMBL document CHEMBL5465560, “Selectivity Literature for EUbOPEN Chemogenomic Library” (2024).

In experiment [1] the target is T1, Serine/threonine-protein kinase Chk1 (Homo sapiens) (UniProt O14757).
T1 sequence (whole entry): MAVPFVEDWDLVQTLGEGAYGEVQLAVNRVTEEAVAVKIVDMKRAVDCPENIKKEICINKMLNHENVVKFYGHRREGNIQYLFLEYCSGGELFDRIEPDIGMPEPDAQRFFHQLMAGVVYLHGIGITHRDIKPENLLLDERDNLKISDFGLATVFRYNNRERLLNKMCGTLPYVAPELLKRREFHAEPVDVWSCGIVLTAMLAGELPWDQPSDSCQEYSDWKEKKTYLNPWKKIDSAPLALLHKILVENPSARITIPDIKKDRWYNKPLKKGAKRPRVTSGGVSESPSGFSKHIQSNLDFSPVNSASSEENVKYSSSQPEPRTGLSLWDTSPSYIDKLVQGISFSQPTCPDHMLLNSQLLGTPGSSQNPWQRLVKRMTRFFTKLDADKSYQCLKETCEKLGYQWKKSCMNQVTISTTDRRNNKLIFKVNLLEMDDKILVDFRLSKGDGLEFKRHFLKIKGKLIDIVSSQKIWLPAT
The experiment in a line: Selectivity interaction (Kinase panel (Z-LYTE Assay)) EUB0001632a CHEK1. To be noted: at 10 µM.

Experiment [2] addresses Serine/threonine-protein kinase PAK 6 (Homo sapiens) (UniProt Q9NQU5). The experiment is described as follows: Selectivity interaction (SelectScreen profiling (Invitrogen)) EUB0000607a PAK6. To be noted: at 2 µM.
Experiment [3] has as its target Casein kinase II subunit alpha (Homo sapiens, UniProt P68400). As to conditions: at 10 µM.
Experiment [4] addresses T2, Activin receptor type-1 (Homo sapiens) (UniProt Q04771).
T2 sequence (whole entry): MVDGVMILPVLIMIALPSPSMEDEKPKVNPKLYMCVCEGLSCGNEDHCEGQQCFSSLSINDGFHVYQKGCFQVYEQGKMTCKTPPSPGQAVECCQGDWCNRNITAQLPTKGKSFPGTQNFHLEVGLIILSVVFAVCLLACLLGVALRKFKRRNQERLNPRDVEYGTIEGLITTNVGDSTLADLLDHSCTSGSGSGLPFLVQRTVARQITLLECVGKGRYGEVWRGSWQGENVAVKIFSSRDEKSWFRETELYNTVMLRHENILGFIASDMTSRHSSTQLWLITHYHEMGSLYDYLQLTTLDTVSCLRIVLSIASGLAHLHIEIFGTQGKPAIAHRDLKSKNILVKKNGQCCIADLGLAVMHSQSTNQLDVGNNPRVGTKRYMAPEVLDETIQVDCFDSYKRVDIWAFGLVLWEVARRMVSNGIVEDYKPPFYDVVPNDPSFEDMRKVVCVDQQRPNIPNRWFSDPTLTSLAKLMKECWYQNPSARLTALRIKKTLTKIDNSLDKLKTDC
The experiment in a line: Selectivity interaction (KinomeScan (DiscoverX)) EUB0000655a ACVR1. To be noted: at 10 µM.

Experiment [5] addresses Vascular endothelial growth factor receptor 2 (Homo sapiens, UniProt P35968). The experiment in a line: Selectivity interaction (KinomeScan (DiscoverX)) EUB0000655a KDR. To be noted: at 10 µM.
The target of experiment [6] is Serine/threonine-protein kinase MRCK beta (Homo sapiens) (UniProt Q9Y5S2). The experiment is described as follows: Selectivity interaction (KinomeScan (DiscoverX)) EUB0001079a CDC42BPB. As to conditions: at 1 µM.
The target in experiment [7] is Cyclin-dependent kinase 4 (Homo sapiens, UniProt P11802). The experiment is described as follows: Selectivity interaction (KinomeScan (DiscoverX)) EUB0001079a CDK4. As to conditions: at 1 µM.
Experiment [8] concerns Epidermal growth factor receptor (Homo sapiens), P00533 [UNDEFINED MUTATION]. The experiment is described as follows: Selectivity interaction (KinomeScan (DiscoverX)) EUB0001079a EGFR. As to conditions: at 1 µM.
Experiment [9] addresses Serine/threonine-protein kinase SIK2 (Homo sapiens) (UniProt Q9H0K1). The experiment is described as follows: Selectivity interaction (KinomeScan (DiscoverX)) EUB0001079a SIK2. As to conditions: at 1 µM.
Experiment [10] addresses Tyrosine-protein kinase Fyn (Homo sapiens) (UniProt P06241). The experiment is described as follows: Selectivity interaction (KinomeScan (DiscoverX)) EUB0001619a FYN. To be noted: at 1 µM.
In experiment [11] the target is Inositol-tetrakisphosphate 1-kinase (Homo sapiens) (UniProt Q13572). The experiment is described as follows: Selectivity interaction (ActivX KiNativ screen (ex vivo kinase selectivity in human PBMCs)) EUB0001619a ITPK1. To be noted: PBMC, at 1 µM. The class given is cell-based.
For experiment [12], the target named is Serine/threonine-protein kinase 24 (Homo sapiens) (UniProt Q9Y6E0). The experiment in a line: Selectivity interaction (KinomeScan (DiscoverX)) EUB0001619a STK24. As to conditions: at 1 µM.
Experiment [13] has as its target Cyclin-dependent kinase 8 (Homo sapiens, UniProt P49336). The experiment in a line: Selectivity interaction (Kinase panel (Invitrogen)) EUB0000639a CDK8. To be noted: at 200 nM.
Experiment [14] has as its target Mitogen-activated protein kinase 14 (Homo sapiens, UniProt Q16539). The experiment is described as follows: Selectivity interaction (ActivX KiNativ screen (kinase selectivity in THP-1 cell lysates)) EUB0000639a MAPK14. The class given is subcellular. To be noted: lysate, at 0.01 µM.
Experiment [15] addresses Cyclin-dependent kinase 15 (Homo sapiens) (UniProt Q96Q40). The experiment in a line: Selectivity interaction (KinomeScan (DiscoverX)) EUB0000695a CDK15. As to conditions: at 100 nM.
Experiment [16] addresses Serine/threonine-protein kinase 26 (Homo sapiens, UniProt Q9P289). The experiment is described as follows: Selectivity interaction (KinomeScan (DiscoverX)) EUB0001868a STK26. To be noted: at 1 µM.
Experiment [17] concerns the target Tyrosine-protein kinase ABL1 (Homo sapiens, UniProt P00519). The experiment in a line: Selectivity interaction (KinomeScan (DiscoverX)) EUB0000045b ABL1. To be noted: at 1 µM.
Experiment [18] deals with Ribosomal protein S6 kinase alpha-4 (Homo sapiens) (UniProt O75676). The experiment in a line: Selectivity interaction (KinomeScan (DiscoverX)) EUB0000045b RPS6KA4. To be noted: at 10 µM.
Sequence of Ribosomal protein S6 kinase alpha-4 (Homo sapiens) (O75676 whole entry, looked up): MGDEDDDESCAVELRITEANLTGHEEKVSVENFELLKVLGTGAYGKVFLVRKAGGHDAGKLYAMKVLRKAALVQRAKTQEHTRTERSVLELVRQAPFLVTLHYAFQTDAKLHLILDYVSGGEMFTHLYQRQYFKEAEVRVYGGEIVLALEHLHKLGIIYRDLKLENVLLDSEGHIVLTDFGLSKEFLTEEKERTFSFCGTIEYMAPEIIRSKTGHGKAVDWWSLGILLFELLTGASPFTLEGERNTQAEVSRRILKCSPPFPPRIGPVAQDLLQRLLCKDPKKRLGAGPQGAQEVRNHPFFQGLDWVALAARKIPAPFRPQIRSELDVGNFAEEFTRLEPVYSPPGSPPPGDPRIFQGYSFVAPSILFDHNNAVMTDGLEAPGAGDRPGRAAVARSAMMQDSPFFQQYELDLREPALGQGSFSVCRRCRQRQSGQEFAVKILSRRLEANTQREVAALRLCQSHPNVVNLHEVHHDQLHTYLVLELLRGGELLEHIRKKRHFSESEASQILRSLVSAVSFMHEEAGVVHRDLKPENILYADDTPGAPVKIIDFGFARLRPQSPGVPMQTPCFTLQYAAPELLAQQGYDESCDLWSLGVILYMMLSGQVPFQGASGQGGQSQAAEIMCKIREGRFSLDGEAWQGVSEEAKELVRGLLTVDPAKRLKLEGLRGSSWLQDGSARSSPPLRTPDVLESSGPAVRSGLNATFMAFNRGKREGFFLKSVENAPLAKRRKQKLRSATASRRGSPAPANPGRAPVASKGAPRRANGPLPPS

Sequence of Epidermal growth factor receptor (Homo sapiens), P00533 [UNDEFINED MUTATION] (P00533 whole entry, looked up, change not shown): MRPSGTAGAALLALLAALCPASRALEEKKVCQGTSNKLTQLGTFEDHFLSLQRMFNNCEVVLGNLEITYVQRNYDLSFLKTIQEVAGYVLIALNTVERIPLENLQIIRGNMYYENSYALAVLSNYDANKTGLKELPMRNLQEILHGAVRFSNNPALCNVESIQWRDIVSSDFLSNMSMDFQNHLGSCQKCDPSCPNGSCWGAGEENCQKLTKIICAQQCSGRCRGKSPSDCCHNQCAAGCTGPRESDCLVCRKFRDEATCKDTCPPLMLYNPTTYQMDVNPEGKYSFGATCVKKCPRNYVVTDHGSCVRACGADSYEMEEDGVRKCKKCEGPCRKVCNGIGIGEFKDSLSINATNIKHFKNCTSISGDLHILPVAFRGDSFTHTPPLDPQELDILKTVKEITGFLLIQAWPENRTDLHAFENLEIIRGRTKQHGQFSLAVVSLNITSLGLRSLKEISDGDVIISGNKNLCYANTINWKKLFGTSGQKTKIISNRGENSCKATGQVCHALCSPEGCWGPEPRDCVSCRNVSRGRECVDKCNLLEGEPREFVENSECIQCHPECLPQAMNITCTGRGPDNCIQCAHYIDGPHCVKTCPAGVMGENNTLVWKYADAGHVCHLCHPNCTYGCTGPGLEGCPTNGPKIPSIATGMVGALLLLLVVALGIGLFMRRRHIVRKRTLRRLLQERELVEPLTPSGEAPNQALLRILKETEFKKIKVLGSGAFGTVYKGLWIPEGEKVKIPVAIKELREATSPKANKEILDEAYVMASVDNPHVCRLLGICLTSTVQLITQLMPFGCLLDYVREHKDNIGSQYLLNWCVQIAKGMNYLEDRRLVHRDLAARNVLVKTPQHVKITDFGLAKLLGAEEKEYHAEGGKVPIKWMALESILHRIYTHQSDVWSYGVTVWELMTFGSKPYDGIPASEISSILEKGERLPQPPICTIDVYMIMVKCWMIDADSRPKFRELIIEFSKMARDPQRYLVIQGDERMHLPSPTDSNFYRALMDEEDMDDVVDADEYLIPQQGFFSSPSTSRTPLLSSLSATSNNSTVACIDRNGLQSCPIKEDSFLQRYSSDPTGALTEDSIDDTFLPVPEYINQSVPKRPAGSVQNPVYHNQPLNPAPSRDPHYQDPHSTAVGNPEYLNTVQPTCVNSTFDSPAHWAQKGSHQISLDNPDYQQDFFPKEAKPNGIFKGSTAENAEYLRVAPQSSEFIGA
Sequence of Cyclin-dependent kinase 8 (P49336 whole entry): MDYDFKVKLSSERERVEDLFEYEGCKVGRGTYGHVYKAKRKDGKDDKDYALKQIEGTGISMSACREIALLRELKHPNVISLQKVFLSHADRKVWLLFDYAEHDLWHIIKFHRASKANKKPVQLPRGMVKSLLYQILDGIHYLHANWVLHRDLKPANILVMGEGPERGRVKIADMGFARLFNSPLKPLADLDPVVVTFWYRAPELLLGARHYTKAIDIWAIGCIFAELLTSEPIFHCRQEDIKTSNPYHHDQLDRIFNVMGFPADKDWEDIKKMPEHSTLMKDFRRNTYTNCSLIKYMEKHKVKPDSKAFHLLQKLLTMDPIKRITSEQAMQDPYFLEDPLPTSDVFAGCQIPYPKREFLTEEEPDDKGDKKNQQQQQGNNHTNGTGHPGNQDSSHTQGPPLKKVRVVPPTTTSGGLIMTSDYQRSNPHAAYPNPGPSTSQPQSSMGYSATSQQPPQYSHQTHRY
Sequence of Serine/threonine-protein kinase MRCK beta (Homo sapiens) (Q9Y5S2 whole entry): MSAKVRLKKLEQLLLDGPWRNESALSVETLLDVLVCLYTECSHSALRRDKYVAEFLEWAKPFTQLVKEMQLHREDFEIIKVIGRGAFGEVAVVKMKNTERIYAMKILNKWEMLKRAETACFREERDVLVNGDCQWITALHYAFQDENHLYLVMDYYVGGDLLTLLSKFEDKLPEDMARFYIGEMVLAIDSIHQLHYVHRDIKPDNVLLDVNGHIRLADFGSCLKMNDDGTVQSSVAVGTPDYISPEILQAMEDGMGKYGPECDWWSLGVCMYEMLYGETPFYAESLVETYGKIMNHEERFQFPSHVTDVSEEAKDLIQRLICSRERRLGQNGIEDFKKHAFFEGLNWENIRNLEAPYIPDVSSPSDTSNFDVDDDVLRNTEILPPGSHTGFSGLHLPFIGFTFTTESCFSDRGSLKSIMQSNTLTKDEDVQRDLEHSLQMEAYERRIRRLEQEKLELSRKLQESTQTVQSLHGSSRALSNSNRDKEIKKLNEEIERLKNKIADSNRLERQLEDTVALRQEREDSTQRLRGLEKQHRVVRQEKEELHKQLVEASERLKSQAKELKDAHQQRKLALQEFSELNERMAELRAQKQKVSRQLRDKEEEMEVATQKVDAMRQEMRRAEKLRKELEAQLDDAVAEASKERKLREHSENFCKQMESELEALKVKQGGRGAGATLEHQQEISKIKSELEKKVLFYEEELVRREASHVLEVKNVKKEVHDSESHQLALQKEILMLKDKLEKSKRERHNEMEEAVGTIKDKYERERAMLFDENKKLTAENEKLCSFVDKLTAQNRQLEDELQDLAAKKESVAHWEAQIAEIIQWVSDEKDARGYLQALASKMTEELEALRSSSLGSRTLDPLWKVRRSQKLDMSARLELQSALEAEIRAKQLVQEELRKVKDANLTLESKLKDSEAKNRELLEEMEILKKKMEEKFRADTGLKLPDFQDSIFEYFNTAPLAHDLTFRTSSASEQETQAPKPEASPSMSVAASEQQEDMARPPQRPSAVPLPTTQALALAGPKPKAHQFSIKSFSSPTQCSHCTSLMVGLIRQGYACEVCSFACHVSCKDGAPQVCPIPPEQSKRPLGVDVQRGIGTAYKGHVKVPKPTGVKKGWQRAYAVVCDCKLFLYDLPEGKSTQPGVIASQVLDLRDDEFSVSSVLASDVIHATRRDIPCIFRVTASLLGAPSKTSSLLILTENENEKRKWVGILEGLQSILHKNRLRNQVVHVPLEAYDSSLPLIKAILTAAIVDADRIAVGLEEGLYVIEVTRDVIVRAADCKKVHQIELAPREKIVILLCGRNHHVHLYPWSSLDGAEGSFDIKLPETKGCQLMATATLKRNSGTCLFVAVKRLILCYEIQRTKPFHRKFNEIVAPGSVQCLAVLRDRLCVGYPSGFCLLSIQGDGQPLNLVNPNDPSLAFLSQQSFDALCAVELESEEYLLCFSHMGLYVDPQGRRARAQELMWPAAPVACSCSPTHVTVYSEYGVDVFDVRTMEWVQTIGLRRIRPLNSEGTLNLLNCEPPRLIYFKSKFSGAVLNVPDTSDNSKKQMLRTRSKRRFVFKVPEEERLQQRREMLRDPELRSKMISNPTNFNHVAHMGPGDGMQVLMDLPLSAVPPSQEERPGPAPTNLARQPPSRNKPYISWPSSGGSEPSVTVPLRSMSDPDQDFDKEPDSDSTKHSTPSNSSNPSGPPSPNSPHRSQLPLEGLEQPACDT
Sequence of Cyclin-dependent kinase 4 (P11802 whole entry): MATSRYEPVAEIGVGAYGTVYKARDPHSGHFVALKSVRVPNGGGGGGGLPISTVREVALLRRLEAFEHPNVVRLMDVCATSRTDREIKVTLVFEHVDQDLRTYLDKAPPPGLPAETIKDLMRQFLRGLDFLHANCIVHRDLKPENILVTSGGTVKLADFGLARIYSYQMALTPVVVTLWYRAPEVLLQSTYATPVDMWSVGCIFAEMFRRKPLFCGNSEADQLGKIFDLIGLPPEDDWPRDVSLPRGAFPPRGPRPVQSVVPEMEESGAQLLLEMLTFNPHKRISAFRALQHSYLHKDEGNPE
Sequence of Inositol-tetrakisphosphate 1-kinase (Homo sapiens) (Q13572 whole entry): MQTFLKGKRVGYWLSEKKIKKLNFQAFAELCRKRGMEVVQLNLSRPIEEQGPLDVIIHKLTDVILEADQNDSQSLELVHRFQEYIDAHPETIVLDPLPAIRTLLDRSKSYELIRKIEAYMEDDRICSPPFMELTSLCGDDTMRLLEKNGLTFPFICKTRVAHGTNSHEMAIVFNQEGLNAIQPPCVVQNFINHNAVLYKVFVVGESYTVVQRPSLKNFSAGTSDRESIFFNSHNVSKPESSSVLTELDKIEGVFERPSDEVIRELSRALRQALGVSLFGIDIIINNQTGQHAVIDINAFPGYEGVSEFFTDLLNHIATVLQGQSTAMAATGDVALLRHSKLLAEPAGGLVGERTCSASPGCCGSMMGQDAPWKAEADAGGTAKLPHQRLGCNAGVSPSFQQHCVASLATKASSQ

For the molecule `Cn1cc(-n2cnc3c(NCc4nc5cc(Cl)c(Cl)cc5[nH]4)nc(N4CCOCC4)nc32)cn1`, in experiment [1], the % of control turned out to be 37.8%.
Turning to `CNC(=O)Nc1ccc(-c2nc(N3CC4CCC(C3)O4)c3cnn(C4CCC5(CC4)OCCO5)c3n2)cc1`, the % of inhibition in experiment [2] was determined as 11%.
`Cc1cc([C@@H](C)Nc2ccccc2C(=O)O)c2nc(N3CCOCC3)cc(=O)n2c1` [AZD-6482] had a % of control in experiment [3] of 100%.
As for `CN(C)CCOc1ccc(-c2nc(-c3ccncc3)c(-c3ccc4c(c3)CC/C4=N\O)[nH]2)cc1`, the % of control was found to be 51% in experiment [4] and 100% in [5].
Turning to `Nc1cnc(N2CCc3cc(S(=O)(=O)Nc4c(F)cc(Cl)cc4F)cc(N4CCCC4=O)c32)nc1` [TP-020n], the % of control worked out at 95% in [6], 97% in experiment [7], 71% in [8] and 100% in experiment [9].
With `N#Cc1cccc(-c2c[nH]c3ncnc(N4CCOCC4)c23)c1`, the % of control in experiment [10] amounted to 86%; in experiment [12], 60%. Besides, the % of inhibition in [11] was -28%.
In the case of `CC[C@@H]1[C@H](F)C(=O)N[C@@H]1COc1nccc2cc(C(N)=O)c(OC)cc12` [ZIMLOVISERTIB], the % of inhibition is 40.1% in experiment [13] and -4.1% in experiment [14].
The molecule `Cc1cc(F)c(C(=O)Nc2cccc(-c3nncn3C(C)C)n2)cc1-n1cnc(C2CC2)c1` yielded a % of control in experiment [15] of 100%.
For the molecule `Cc1cc(-c2ccnc(Nc3cnn(C)c3)n2)ccc1CNC(=O)N1CC(OC(C)C)C1`, the % of control in experiment [16] is 42%.
For `C=CC(=O)Nc1cc(-n2c(=O)ccc3cnc4ccc(-c5ccc(NS(C)(=O)=O)cc5)cc4c32)ccc1C`, the values for the % of control in experiment [17] and in experiment [18] were 100% and 81%, respectively.
